US11903981B2, “Use of Anaerofustis stercorihominis in preventing and/or treating metabolic diseases” (priority 2018, dated 2024)
Marks after values point to notes of the source that are not given here.

Legend:
AM25-6 = assay: Antibiotic sensitivity of AM25-6 by the drug sensitive paper method; type: cell-based, Anaerofustis stercorihominis; settings: antibiotic susceptibility papers on AM25-6 plates, 37° C., 48 hours
Description: The sensitivity of AM25-6 to 20 common antibiotics was tested by the drug sensitive paper method. 100 μl of AM25-6 bacterial solution cultured to the logarithmic phase was spread plated. Antibiotic susceptibility papers (purchased from Hangzhou Microbial Reagent Co. LTD) were affixed on the medium surface of plates, cultured at 37° C. for 48 hours, after which the size of inhibition zone was measured.

[1] = system: T2D mice model (C57bL/6 mice); assay: T2D animal model, fasting blood glucose; type: in vivo
Description: (§1) The T2D animal model is constructed by using C57bL/6 mice (purchased from Guangdong Medical Experimental Animal Center) at 8 weeks old and 20±2 g of body weight. The mice were housed in a specific pathogen free (SPF) environment and adaptively fed for 1 week, followed by grouping and modeling. The T2D animal model is induced by injection of streptozotocin (STZ) along with feeding high-fat feed, and the mice having fasting blood glucose (FBG) reaching to 10 mM/L can be used as a T2D mice model. Fifty mice selected for experiments are randomly divided into 5 groups.
(§2) Bacterial agent group 1: the T2D mice model was administered with the AM25-6 bacterial solution (1×10^8 cfu/ml) by gavage;
(§3) Bacterial agent group 2: the T2D mice model was administered with the DSM 17244 bacterial solution (1×10^8 cfu/ml) by gavage;
(§4) Bacterial agent group 3: the T2D mice model was administered with the DSM 28733 bacterial solution (1×10^8 cfu/ml) by gavage;
(§5) Metformin treatment group: the T2D mice model was treated with the positive drug metformin.
(§6) The experiment was carried out based on the different groups. After the construction of T2D mice model (i.e., FBG>10), the treatment was started and lasted for 2 months. The food intake amount and body weight of mice were recorded daily. Blood of mice was collected from the tail vein every week for detection of fasting blood glucose. The oral glucose tolerance test (OGTT) of mice was measured at week 4 of treatment and at the end of the experiment.

[2] = system: T2D mice model (C57bL/6 mice); assay: T2D animal model, oral glucose tolerance test (OGTT); type: in vivo
Description: as §1, §6
The results of oral glucose tolerance test (OGTT) for mice shown in Table 8 indicate that the blood glucose of mice reaches the highest level (i.e., 17.8-23.1 mmol/L) at 30 minutes upon administration of glucose by gavage. […] From the perspective of overall glucose tolerance process, it can be seen that Anaerofustis stercorihominis can effectively ameliorate glucose intolerance in diabetic mice.

[3] = system: T2D mice model (C57bL/6 mice); assay: T2D animal model (STZ plus high-fat feed), body weight; type: in vivo; settings: gavage
Description: as §1, §2, §3, §4, §5, §6

Compound | Diameter of inhibition zone (AM25-6) [cm] | also measured
NCC[C@H](O)C(=O)N[C@@H]1C[C@H](N)[C@@H](O[C@H]2O[C@H](CN)[C@@H](O)[C@H](O)[C@H]2O)[C@H](O)[C@H]1O[C@H]1O[C@H](CO)[C@@H](O)[C@H](N)[C@H]1O [Amikacin] | 1.5 | 
CC(C)(O/N=C(\C(=O)N[C@@H]1C(=O)N2C(C(=O)[O-])=C(C[n+]3ccccc3)CS[C@H]12)c1csc(N)n1)C(=O)O [Fortum (Ceftazidime), Ceftazidime] | >4.0 | 
CC1=C(C(=O)O)N2C(=O)[C@@H](NC(=O)[C@H](N)C3=CCC=CC3)[C@H]2SC1 [Cefradine] | 2.0 | 
NC[C@H]1O[C@H](O[C@H]2[C@H](O)[C@@H](O[C@H]3O[C@H](CO)[C@@H](O)[C@H](N)[C@H]3O)[C@H](N)C[C@@H]2N)[C@H](O)[C@@H](O)[C@@H]1O [Kanamycin] | 1.8 | 
Neomycin | 1.0 | 
CO/N=C(\C(=O)N[C@@H]1C(=O)N2C(C(=O)O)=C(COC(N)=O)CS[C@H]12)c1ccco1 [Cefuroxime] | 3.0 | 
CCN1CCN(C(=O)N[C@@H](C(=O)N[C@@H]2C(=O)N3[C@@H]2SC(C)(C)[C@@H]3C(=O)O)c2ccccc2)C(=O)C1=O [Piperacillin] | 3.0 | 
Cc1onc(-c2ccccc2)c1C(=O)N[C@@H]1C(=O)N2[C@@H]1SC(C)(C)[C@@H]2C(=O)O [Oxacillin] | 1.0 | 
C[C@H]1c2cccc(O)c2C(=O)C2=C(O)[C@]3(O)C(=O)C(C(N)=O)=C(O)[C@@H](N(C)C)[C@@H]3[C@@H](O)[C@@H]21 [Doxycycline] | 2.0 | 
CC[C@H]1OC(=O)[C@H](C)[C@@H](O[C@H]2C[C@@](C)(OC)[C@@H](O)[C@H](C)O2)[C@H](C)[C@@H](O[C@@H]2O[C@H](C)C[C@H](N(C)C)[C@H]2O)[C@](C)(O)C[C@@H](C)C(=O)[C@H](C)[C@@H](O)[C@]1(C)O [Erythromycin] | 2.0 | 
CO/N=C(\C(=O)N[C@@H]1C(=O)N2C(C(=O)O)=C(CSc3nc(=O)c(=O)[nH]n3C)CS[C@H]12)c1csc(N)n1 [Ceftriaxone Sodium] | >4.0 | 
CC1=C(C(=O)O)N2C(=O)[C@@H](NC(=O)[C@H](N)c3ccccc3)[C@H]2SC1 [Cefalexin] | 2.0 | 
Penicillin | 3.0 | 
CCN1CCN(C(=O)N[C@@H](C(=O)N[C@@H]2C(=O)N3C(C(=O)O)=C(CSc4nnnn4C)CS[C@H]23)c2ccc(O)cc2)C(=O)C1=O [Cefoperazone] | >4.0 | 
CN(C)c1ccc(O)c2c1C[C@H]1C[C@H]3[C@H](N(C)C)C(O)=C(C(N)=O)C(=O)[C@@]3(O)C(O)=C1C2=O [Minocin (Minocycline), Minocycline] | 2.6 | 
CN(C)[C@@H]1C(O)=C(C(N)=O)C(=O)[C@@]2(O)C(O)=C3C(=O)c4c(O)cccc4[C@@](C)(O)[C@H]3C[C@@H]12 [Tetracycline] | 0.9 | 
Gentamicin | 2.0 | 
Cc1nnc(SCC2=C(C(=O)O)N3C(=O)[C@@H](NC(=O)Cn4cnnn4)[C@H]3SC2)s1 [Cefazolin] | 2.6 | 
CC1(C)S[C@@H]2[C@H](NC(=O)[C@H](N)c3ccccc3)C(=O)N2[C@H]1C(=O)O [Ampicillin] | >4.0 | 
CC1(C)S[C@@H]2[C@H](NC(=O)C(C(=O)O)c3ccccc3)C(=O)N2[C@H]1C(=O)O (some centres unmarked) [Carbenicillin] | >4.0 | 
CN(C)C(=N)N=C(N)N [Metformin, metformin, reference compound] |  | Fasting blood glucose, Week 1 ([1]; Week 1): 16.8 mmol/L; Fasting blood glucose, Week 3 ([1]; Week 3): 16.2 mmol/L; Fasting blood glucose, Week 5 ([1]; Week 5): 13.9 mmol/L; Fasting blood glucose, Week 7 ([1]; Week 7): 11.5* mmol/L; Fasting blood glucose, Week 9 ([1]; Week 9): 10.1** mmol/L; Blood glucose in OGTT, 0 minute ([2]; 0 minute after glucose by gavage): 9.3 mmol/L; Blood glucose in OGTT, 30 minutes ([2]; 30 minutes after glucose by gavage): 18.6 mmol/L; Blood glucose in OGTT, 60 minutes ([2]; 60 minutes after glucose by gavage): 16.4 mmol/L; Blood glucose in OGTT, 90 minutes ([2]; 90 minutes after glucose by gavage): 11.7* mmol/L; Blood glucose in OGTT, 120 minutes ([2]; 120 minutes after glucose by gavage): 10.3 mmol/L; Body weight ([3]; Week 1): 20.33 g; Body weight ([3]; Week 3): 22.36 g; Body weight ([3]; Week 5): 24.63 g; Body weight ([3]; Week 7): 25.86 g; Body weight ([3]; Week 9, *P<0.05 relative to model group): 26.53* g
